The values that follow come from patent US12268674B2, “Mi-2β inhibitor as an immunotherapy agent” (BioVentures, LLC, priority 2021, dated 2025).

The nature of series [1]: Tolerability in C57BL/6 mice (body weight, H&E staining of tissues). It counts as in vivo. As to conditions: 30 mg/kg/day for 2 weeks. The source says: FIG. 11 illustrates In vitro assay for Mi-2β inhibitors. A, The inhibitory activity of Z36 for Mi-2β chromatin modulatory activity, measured as fold changes of Mi-2β activity treated with control vehicle. B, The inhibitory activity of Z36-MP5 with IC50 values against Mi-2β at different ATP concentrations. The curves from top to bottom: ATP 300 (μM), ATP 100 (μM), ATP 30 (μM), and ATP 10 (μM). C, The expression of Irf1, Cxc19 and Cxcl10 and Irf1 mRNA in B16F10 cells treated with Z36-MP5 as indicated concentration for 24 hours was determined with RT-qPCR assay. The four bars from left to right: vehicle control, Z36-MP5 5 μM, Z36-MP5 25 μM, and Z36-MP5 100 μM. D, Z36-MP5-treated (25 μM) GFP-labelled B16F10 cells were pretreated with 10 ng/ml of IFN-γ for 24 hours, before co-culture with activated Pmel-1 T cells at a ratio of 1:1 for three days. The fold changes of survival GFP-positive tumor cells were assayed with flow cytometry. Data presents as means±SD E, The body weight changes of C57BL/6J mice treated with Z36-MP5 (30 mg/kg/day) for 2 weeks. Data are mean±SEM (n=5). […]
Z36-MP5 was chosen for further validation and experimental therapeutics in vivo. […] To investigate its cellular inhibitory activity, B16-F10 cells were treated with Z36-MP5 at concentrations ranging from 5 to 100 μM, and the activation of Mi-2β target genes measured by RT-qPCR. […]

The next series has as its target T1, ABCC3 (Homo sapiens, UniProt O15438).
T1 construct: host or cells: A375 cell lysate
Nature of the series: ATPase profile (ATP acyl phosphate probe). It counts as binding.

Series [2] concerns ACTA2, ACTB, ACTBL2, ACTC1, ACTG1. Briefly: ATPase profile (ATP acyl phosphate probe). Type of series: binding. As to conditions: ACTBL2, ACTC1, ACTG1, SEQ ID NO: 24, ATP BS.
The target of another series is T2, ATG7 (Homo sapiens, UniProt O95352).
T2 construct: to get the native cell lysate; host or cells: A375 cell lysate
Nature of the series: ATPase profile (ATP acyl phosphate probe). It counts as binding.

The next series has as its target T3, ATP5B (Homo sapiens, UniProt P06576).
T3 construct: to get the native cell lysate; host or cells: A375 cell lysate
Nature of the series: ATPase profile (ATP acyl phosphate probe). Type of series: binding. As to conditions: SEQ ID NO: 48, ATP BS.

In a further series the target is T4, DDX21 (Homo sapiens, UniProt Q9NR30).
T4 construct: endogenous in cells; host or cells: A375 cell lysate
Briefly: ATPase profile (ATP acyl phosphate probe). Conditions: DDX21, SEQ ID NO: 67, ATP BS. It counts as binding.

The target in a further series is T5, DDX3X (Homo sapiens, UniProt O00571).
T5 construct: endogenous in cells; host or cells: A375 cell lysate
Briefly: ATPase profile (ATP acyl phosphate probe). Type of series: binding. As to conditions: SEQ ID NO: 70, ATP BS.

Another series has as its target T6, HSP90AB1, HSP90AB3P (Homo sapiens, UniProt P08238).
T6 construct: to get the native cell lysate; endogenous in cells; host or cells: A375
Briefly: ATPase profile (ATP acyl phosphate probe). It counts as binding. Conditions: SEQ ID NO: 98, ATP BS.

The target in a further series is T7, LONP1 (Homo sapiens, UniProt P36776).
T7 construct: to get the native cell lysate; endogenous in cells; host or cells: A375
Briefly: ATPase profile (ATP acyl phosphate probe). As to conditions: LONP1, SEQ ID NO: 115, labeling site Other. Type of series: binding.

The next series addresses T8, MCM6 (Homo sapiens, UniProt P33991+Q14566).
T8 construct: to get the native cell lysate; endogenous in cells; host or cells: A375
Nature of the series: ATPase profile (ATP acyl phosphate probe). Type of series: binding. Conditions: read-out: Inhibition (%) by 1 μM Z36-MP5.

For the next series, the target named is T9, NSF (Homo sapiens, UniProt P46459).
T9 construct: to get the native cell lysate; endogenous in cells; host or cells: A375
Nature of the series: ATPase profile (ATP acyl phosphate probe). Type of series: binding.

The target of another series is T10, NT5E (Homo sapiens, UniProt P21589).
T10 construct: to get the native cell lysate; endogenous in cells; host or cells: A375
Nature of the series: ATPase profile (ATP acyl phosphate probe). Conditions: SEQ ID NO: 140, ATP BS. It counts as binding.

In the next series the target is T11, NVL (Homo sapiens, UniProt O15381).
T11 construct: to get the native cell lysate; endogenous in cells; host or cells: A375
Nature of the series: ATPase profile (ATP acyl phosphate probe). It counts as binding.

For another series, the target named is T12, PGK1 (Homo sapiens, UniProt P00558).
T12 construct: to get the native cell lysate; endogenous in cells; host or cells: A375 cell lysate
Nature of the series: ATPase profile (ATP acyl phosphate probe). Conditions: PGK1, SEQ ID NO: 160, ATP BS. Type of series: binding.

Another series deals with T13, PSMC5 (Homo sapiens, UniProt P62195).
T13 construct: to get the native cell lysate; endogenous in cells; host or cells: A375 cell lysate
Nature of the series: ATPase profile (ATP acyl phosphate probe). It counts as binding. As to conditions: PSMC5, SEQ ID NO: 177, ATP BS.

The target in the next series is T14, PSMC6 (Homo sapiens, UniProt P62333).
T14 construct: to get the native cell lysate; endogenous in cells; host or cells: A375 cell lysate
Nature of the series: ATPase profile (ATP acyl phosphate probe). Conditions: PSMC6, SEQ ID NO: 178, ATP BS. Type of series: binding.

A further series deals with T15, RFK (Homo sapiens, UniProt Q969G6).
T15 construct: to get the native cell lysate; endogenous in cells; host or cells: A375 cell lysate
Briefly: ATPase profile (ATP acyl phosphate probe). Type of series: binding. As to conditions: SEQ ID NO: 187, ATP BS.

Another series has as its target T16, RUVBL2 (Homo sapiens, UniProt Q9Y230).
T16 construct: to get the native cell lysate; endogenous in cells; host or cells: A375 cell lysate
Briefly: ATPase profile (ATP acyl phosphate probe). It counts as binding. Conditions: RUVBL2, SEQ ID NO: 189, ATP BS.

A further series addresses T17, XRCC5 (Homo sapiens, UniProt P13010).
T17 construct: to get the native cell lysate; endogenous in cells; host or cells: A375 cell lysate
Briefly: ATPase profile (ATP acyl phosphate probe). Conditions: XRCC5, SEQ ID NO: 231, ATP BS. It counts as binding.

Each structure is given as a SMILES string. Where two headings read alike, the source gives them in different places.

T9 sequence (P46459 whole entry): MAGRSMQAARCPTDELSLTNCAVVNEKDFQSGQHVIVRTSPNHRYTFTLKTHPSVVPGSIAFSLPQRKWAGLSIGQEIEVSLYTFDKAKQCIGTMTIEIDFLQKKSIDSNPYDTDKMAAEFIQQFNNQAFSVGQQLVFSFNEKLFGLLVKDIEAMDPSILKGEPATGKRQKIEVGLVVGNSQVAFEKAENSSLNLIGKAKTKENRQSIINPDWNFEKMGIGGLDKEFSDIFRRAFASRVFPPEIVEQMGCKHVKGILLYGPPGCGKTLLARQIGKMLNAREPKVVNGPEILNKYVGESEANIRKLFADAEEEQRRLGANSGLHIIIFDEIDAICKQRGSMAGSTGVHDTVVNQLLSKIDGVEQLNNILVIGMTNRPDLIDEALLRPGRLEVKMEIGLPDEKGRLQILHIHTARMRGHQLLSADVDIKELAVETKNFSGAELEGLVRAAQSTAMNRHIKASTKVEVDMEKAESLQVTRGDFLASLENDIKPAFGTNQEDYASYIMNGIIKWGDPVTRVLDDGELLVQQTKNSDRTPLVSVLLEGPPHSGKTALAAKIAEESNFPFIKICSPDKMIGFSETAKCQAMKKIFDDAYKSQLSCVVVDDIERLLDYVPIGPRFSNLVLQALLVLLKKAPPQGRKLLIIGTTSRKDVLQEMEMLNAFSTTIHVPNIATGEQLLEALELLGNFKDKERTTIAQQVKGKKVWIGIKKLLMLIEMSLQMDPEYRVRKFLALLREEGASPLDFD
T1 sequence (O15438 whole entry): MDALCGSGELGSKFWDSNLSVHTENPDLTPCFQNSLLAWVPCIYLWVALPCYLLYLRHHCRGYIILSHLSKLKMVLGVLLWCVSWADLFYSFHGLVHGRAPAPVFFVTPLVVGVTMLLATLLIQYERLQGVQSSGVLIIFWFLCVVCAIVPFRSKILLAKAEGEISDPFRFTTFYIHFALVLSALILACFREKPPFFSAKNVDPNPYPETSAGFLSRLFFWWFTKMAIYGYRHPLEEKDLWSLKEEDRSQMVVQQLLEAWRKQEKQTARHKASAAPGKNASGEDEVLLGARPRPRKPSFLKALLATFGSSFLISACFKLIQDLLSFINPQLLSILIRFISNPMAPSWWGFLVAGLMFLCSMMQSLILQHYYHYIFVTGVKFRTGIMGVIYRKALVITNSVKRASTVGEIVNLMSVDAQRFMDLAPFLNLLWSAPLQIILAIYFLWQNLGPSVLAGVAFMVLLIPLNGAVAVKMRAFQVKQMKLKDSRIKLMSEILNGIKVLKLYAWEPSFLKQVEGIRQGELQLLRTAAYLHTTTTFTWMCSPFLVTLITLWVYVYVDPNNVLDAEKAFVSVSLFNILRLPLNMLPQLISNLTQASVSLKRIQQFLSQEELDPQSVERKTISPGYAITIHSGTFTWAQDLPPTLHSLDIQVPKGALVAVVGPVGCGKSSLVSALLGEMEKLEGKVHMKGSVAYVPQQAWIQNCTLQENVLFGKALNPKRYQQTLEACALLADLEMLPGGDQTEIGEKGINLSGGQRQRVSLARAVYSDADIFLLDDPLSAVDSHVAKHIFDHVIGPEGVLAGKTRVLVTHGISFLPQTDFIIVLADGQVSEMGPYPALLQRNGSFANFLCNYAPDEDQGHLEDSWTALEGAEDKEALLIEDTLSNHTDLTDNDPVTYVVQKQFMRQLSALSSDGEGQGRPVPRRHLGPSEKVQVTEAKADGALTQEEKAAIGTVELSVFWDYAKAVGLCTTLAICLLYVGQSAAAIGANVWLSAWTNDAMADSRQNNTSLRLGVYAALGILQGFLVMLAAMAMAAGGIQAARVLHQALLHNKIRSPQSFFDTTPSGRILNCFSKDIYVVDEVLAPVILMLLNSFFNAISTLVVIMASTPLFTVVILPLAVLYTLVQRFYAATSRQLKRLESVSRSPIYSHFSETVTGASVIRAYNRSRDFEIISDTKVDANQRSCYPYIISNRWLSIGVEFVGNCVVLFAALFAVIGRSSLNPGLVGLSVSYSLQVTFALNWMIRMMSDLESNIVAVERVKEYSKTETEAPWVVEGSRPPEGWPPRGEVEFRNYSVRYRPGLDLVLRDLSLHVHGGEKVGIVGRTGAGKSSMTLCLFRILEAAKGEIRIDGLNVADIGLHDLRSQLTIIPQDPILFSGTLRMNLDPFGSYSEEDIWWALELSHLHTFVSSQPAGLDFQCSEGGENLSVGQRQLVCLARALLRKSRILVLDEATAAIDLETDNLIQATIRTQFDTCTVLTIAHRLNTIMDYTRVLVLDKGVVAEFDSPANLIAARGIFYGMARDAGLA
T2 sequence (O95352 whole entry): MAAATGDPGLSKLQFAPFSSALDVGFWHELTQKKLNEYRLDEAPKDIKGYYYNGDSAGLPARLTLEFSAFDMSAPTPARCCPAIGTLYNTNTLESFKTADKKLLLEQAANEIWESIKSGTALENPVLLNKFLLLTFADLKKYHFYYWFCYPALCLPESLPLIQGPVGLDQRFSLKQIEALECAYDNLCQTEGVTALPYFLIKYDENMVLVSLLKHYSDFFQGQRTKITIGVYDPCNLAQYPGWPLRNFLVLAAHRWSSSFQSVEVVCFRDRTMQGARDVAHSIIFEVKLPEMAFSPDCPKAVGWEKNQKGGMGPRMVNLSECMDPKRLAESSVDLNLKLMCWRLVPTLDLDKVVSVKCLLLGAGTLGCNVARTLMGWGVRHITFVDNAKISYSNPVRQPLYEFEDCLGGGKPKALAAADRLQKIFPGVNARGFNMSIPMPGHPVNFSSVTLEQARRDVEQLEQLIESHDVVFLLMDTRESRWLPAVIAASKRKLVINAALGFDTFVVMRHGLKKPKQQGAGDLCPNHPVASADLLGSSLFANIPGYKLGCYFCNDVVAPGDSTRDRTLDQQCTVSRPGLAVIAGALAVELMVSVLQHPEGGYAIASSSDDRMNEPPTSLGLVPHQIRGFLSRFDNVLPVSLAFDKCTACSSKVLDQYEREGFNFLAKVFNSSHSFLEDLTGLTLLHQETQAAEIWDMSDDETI
T11 sequence (O15381 whole entry): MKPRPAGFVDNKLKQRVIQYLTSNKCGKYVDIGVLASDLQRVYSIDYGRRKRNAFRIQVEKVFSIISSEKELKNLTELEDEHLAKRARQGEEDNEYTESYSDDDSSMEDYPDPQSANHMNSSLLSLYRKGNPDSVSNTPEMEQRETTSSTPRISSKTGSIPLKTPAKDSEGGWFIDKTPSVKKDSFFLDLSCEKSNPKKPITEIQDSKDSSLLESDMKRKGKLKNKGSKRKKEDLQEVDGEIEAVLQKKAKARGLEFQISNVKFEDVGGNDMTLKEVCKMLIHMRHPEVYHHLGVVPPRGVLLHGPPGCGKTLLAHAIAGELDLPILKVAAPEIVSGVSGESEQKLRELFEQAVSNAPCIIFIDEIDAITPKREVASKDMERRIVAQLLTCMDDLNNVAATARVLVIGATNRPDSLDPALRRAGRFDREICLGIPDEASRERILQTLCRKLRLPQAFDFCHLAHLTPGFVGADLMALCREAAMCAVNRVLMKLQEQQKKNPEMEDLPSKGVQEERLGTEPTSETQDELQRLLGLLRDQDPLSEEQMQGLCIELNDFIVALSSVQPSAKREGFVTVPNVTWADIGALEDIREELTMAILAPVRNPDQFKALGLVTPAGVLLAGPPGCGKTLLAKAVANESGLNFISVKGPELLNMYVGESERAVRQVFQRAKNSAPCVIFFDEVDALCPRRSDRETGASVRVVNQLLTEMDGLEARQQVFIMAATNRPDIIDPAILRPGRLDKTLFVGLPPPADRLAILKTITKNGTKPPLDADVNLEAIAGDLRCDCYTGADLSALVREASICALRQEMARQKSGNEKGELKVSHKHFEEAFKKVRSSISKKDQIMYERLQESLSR
T4 sequence (Q9NR30 whole entry): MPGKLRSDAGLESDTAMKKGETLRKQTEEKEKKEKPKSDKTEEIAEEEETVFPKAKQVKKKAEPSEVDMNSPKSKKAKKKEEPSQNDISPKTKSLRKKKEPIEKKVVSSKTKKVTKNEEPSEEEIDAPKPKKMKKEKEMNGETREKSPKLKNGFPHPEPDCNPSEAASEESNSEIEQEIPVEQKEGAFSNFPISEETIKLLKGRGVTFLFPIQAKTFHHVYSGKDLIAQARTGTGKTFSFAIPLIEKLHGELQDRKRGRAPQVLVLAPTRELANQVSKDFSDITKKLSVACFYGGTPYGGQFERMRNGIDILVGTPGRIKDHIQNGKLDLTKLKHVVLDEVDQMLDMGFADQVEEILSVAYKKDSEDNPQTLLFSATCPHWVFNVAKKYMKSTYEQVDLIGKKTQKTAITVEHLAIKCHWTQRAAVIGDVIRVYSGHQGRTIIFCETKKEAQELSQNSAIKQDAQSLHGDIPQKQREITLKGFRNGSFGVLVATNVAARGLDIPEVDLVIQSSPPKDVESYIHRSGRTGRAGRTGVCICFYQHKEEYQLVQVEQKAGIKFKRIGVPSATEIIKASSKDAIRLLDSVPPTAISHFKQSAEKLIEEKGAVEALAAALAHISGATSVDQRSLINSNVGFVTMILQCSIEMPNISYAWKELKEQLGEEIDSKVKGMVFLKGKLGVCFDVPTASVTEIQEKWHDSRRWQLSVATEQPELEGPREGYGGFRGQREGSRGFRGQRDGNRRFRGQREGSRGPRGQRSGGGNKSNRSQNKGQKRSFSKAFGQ
T12 sequence (P00558 whole entry): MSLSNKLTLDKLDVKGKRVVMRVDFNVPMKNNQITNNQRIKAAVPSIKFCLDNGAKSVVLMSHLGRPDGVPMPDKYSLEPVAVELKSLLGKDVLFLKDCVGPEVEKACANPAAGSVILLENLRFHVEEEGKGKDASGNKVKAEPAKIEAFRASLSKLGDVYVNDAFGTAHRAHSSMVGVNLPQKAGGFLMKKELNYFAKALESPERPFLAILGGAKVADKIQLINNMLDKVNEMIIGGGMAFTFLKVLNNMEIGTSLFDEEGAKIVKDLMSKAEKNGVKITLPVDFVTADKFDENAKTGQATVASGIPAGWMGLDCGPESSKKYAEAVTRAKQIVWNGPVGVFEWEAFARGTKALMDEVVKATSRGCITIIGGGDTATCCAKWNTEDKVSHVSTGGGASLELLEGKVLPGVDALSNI

In general, inhibition refers to the drop in the measured response relative to a control, in per cent. For `Cn1c(=O)[nH]c2ccc(-c3cccc(C(=O)NC4CCn5ccnc5C4)c3)cc21` (stereo not drawn) [Z36-MP5, 3-(3-methyl-2-oxo-2,3-dihydro-1H-benzo[d]imidazol-5-yl)-N-(5,6,7,8-tetrahydroimidazo[1,2-a]pyridin-7-yl)benzamide], the “tolerability (mouse weight, organ tissue histological staining)” value in series [1] was “tolerated without significant toxicity”. In addition, the “Inhibition (%) by 1 μM Z36-MP5” value is 4.57% at ABCC3 (ABCC3, SEQ ID NO: 9, ATP BS); 9.43% at ABCC3 (ABCC3, SEQ ID NO: 10, ATP BS); −15.29% in [2]; −0.18% on ATG7 (ATG7, SEQ ID NO: 45, ATP BS); −6.20% at ATG7 (ATG7, SEQ ID NO: 46, ATP BS); −14.96% on ATP5B. For the same molecule, the “Inhibition (%) by 1 μM Z36-MP5” value at DDX21 was 3.05%; at DDX3X it was 11.22%; on HSP90AB1, HSP90AB3P, −16.94%; on LONP1, 1.81%; at NSF (SEQ ID NO: 138, ATP BS), 6.03%; on NSF (SEQ ID NO: 139, ATP BS), −6.18%. Further, the “Inhibition (%) by 1 μM Z36-MP5” value on NT5E is −9.95%; on NVL (SEQ ID NO: 148, ATP BS), −1.13%; at NVL (SEQ ID NO: 149, ATP BS), −8.26%; at PGK1, −4.49%; on PSMC5 it was −3.98%; at PSMC6, −0.83%. The results for the “Inhibition (%) by 1 μM Z36-MP5” value on RFK, on RUVBL2 and at XRCC5 were 10.06%, −0.97% and 2.24%, respectively. Moreover, the inhibition at 1 µM on MCM6 (MCM6, SEQ ID NO: 119, ATP BS) was -5.23%; at MCM6 (MCM6, SEQ ID NO: 120, ATP BS), -2.54%.
